Measurements taken from article PMC10683028 (Journal of Medicinal Chemistry, 2023).
≈ marks a conversion by molar mass, not a printed value.

How the values were obtained:
[1] = in vitro; settings: PAMPA, pH 7.4
Procedure: (§1) In vitro ADME experiments were performed exactly as reported.[38]−[40]

[2] = pH 7.4
Procedure: Test compounds were prepared as 0.5 mM solutions in 50:50 acetonitrile:water and analyzed by reversed-phase HPLC-UV (wavelength 254 nm) using a Phenomenex Luna C18 100 Å 150 × 4.6 mm 5 μm column with a gradient of aqueous phase (50 mM ammonium acetate, pH 7.4) and mobile phase (acetonitrile) as described.[41],[42]

[3] = physchem; settings: aqueous medium at pH 7.4, pH 7.4
Procedure: as §1

What does the source list for `COc1ccc(-c2noc(C(=O)NCCc3ccc(C(=O)N4CC(OC)C4)cc3)n2)cc1OCC1CC1` [compound 77, 3-[3-(Cyclopropylmethoxy)-4-methoxyphenyl]-N-[2-[4-(3-methoxyazetidine-1-carbonyl)phenyl]ethyl]-1,2,4-oxadiazole-5-carboxamide]?
Papp [1]: 3.6 ×10⁻⁶ cm/s; CHI-logDpH7.4 [2]: 2.9; solubility [3]: 2 µM (≈ 1.01 µg/mL)

What does the source list for `COc1ccc(-c2noc(C(=O)NC(C#N)Cc3ccc(C(=O)N4CC(OC)C4)cc3)n2)cc1OC` (stereo not drawn) [compound 34, N-(1-Cyano-2-(4-(3-methoxyazetidine-1-carbonyl)phenyl)ethyl)-3-(3,4-dimethoxyphenyl)-1,2,4-oxadiazole-5-carboxamide]?
Papp [1]: 1.5 ×10⁻⁶ cm/s; CHI-logDpH7.4 [2]: 2.2; solubility [3]: 164 µM (≈ 80.6 µg/mL)

For `COc1ccc(-c2noc(C(=O)NCCc3ccc(C(=O)N4CC5(COC5)C4)cc3)n2)cc1OC` [compound 18, N-(4-(2-Oxa-6-azaspiro[3.3]heptane-6-carbonyl)phenethyl)-3-(3,4-dimethoxyphenyl)-1,2,4-oxadiazole-5-carboxamide], which Papp [1] is on record?
The Papp was 2.6 ×10⁻⁶ cm/s.

What about the CHI-logDpH7.4 [2] of the same compound?
The CHI-logDpH7.4 was 1.8.

What about the solubility [3] of the same compound?
Its solubility is 12 µM (≈ 5.74 µg/mL).

For `COc1ccc(-c2nnc(C(=O)NCCc3ccc(C(=O)N4CC(OC)C4)cc3)o2)cc1OC` [compound 104, 5-(3,4-Dimethoxyphenyl)-N-(4-(3-methoxyazetidine-1-carbonyl)phenethyl)-1,3,4-oxadiazole-2-carboxamide], which Papp [1] is on record?
Its Papp is 0.8 ×10⁻⁶ cm/s.

What about the CHI-logDpH7.4 [2] of the same compound?
Its CHI-logDpH7.4 is 1.7.

What about the solubility [3] of the same compound?
Its solubility is 11 µM (≈ 5.13 µg/mL).
